According to PMC4020581 (Biochemistry, 2014):

Target: T1, FtsZ (Bacillus subtilis, UniProt P17865)
T1 sequence (P17865 1-382): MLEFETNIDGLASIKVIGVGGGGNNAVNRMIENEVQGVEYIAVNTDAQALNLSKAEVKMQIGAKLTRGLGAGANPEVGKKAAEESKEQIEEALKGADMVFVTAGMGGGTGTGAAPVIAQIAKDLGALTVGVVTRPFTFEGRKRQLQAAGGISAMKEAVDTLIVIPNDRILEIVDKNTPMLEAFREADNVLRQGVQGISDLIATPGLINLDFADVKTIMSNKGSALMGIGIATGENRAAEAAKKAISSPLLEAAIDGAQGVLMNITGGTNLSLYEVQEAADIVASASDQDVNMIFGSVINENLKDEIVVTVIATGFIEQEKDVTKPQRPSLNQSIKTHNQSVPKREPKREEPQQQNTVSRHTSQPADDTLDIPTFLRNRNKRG
Assay: malachite green/ammonium molybdate GTPase assay
Assay type: biochemical

- malachite green/ammonium molybdate GTPase assay (1 mM GTP): 1.5 ± 0.6 min^–1
Compound: Nc1nc2c(ncn2[C@@H]2O[C@H](COP(=O)(O)OP(=O)(O)OP(=O)(O)O)[C@@H](O)[C@H]2O)c(=O)[nH]1 [GTP]
